Experimental data published in patent US20250387481A1, “PRE-TREATED T CELLS FOR USE AS A MEDICAMENT” (STICHTING HET NEDERLANDS KANKER INSTITUUT-ANTONI VAN …, priority 2022, published 2025).

How the values were obtained:
[1] = tested on: human lung tumor organoids; assay: Tumor organoids killing assay with autologous tumor-reactive T cells; assay type: cell-based; conditions: tumor-reactive T cells pre-treated with 10 nmol/L docetaxel
Experimental: (§1) To express luciferase in the tumor organoids, we used pLenti CMV Puro LUC (w168-1; Plasmid #17477; Addgene). Tumor-reactive PBMC were thawed in pre-warmed T cell medium and incubated for 15 minutes with 25 U/ml Benzonase. After washing, cells were re-suspended at 2−3×10^6 cells/ml in T cell medium and cultured overnight at 37° C. The day after, PBMC were incubated with (or without) 10 nmol/L docetaxel for 48 hr. To determine the sensitivity of tumor and healthy organoids to T cell-mediated killing, flatbottom non-tissue culture treated plates were coated with 5 μg/ml αCD28 and kept at 4° C. overnight prior to co-culture. Tumor organoids were previously transduced with luciferase reporter gene. Organoids were isolated from Geltrex 48 hours prior to co-culture and stimulated with 200 ng/ml IFNγ for 24 hr prior to co-culture. The next day, part of the organoids was dissociated to single cells and counted using a hemocytometer. […] At the end of the 72 hours, tumor and healthy organoids viability in the different conditions was evaluated by microscopy, taking bright-field pictures at 5 and 10× magnification. Tumor cell viability in the different conditions was also measured by luciferase reporter assay using 3 μg/mL luciferin. Luminescence was measured with a Tecan reader (1,000 ms exposure).

KB1P organoids [2] = assay: Co-culture of pre-treated splenic T cells with KB1P organoids (MTT, cleaved-caspase 3); assay type: cell-based, mouse; conditions: T cells that cannot mature nor produce a TCR response
[3] = tested on: human healthy lung organoids; assay: Healthy organoids killing assay with tumor-reactive T cells; assay type: cell-based; conditions: tumor-reactive T cells pre-treated with docetaxel
Experimental: as §1

KB1P organoids [4] = assay: MTT measurement of KB1P organoid survival upon increasing doses of docetaxel; assay type: cell-based; conditions: Mus musculus, docetaxel for 72 h
Experimental: Breast cancer organoids were derived from K14-Cre; Brca1fl/fl; p53fl/fl mouse mammary tumors (KB1P (Kester, L., et al. Clin Cancer Res, 2022.)) and from MMTV-PyMT (Duarte, A. A., et al. Nat Methods, 2018. 15(2): p. 134-140) mouse mammary tumors. Both lines were cultured in 50 μl drops of Cultrex PathClear Reduced Growth Factor Basement Membrane Extract Type 2 (BME, Amsbio, 3533-005-02). KB1P organoids were cultured in Advanced Dulbecco's modified Eagle's medium (adDMEM/F12; Thermo Fisher Scientific. Cat. No. 12634-010) containing Hepes (10 mmol/L; Thermo Fisher Scientific, Cat. No. 15630-056), Penicillin/streptomycin (10,000 U/ml; Thermo Fisher Scientific, Cat. No. 15140-122), B27 (2% Thermo Fisher Scientific, Cat. No. 17504-044), N-acetylcysteine (1.25 mM; Sigma-Aldrich, Cat. No. A9165) and fibroblast growth factor (FGF, 12 ng/ml; Invitrogen, Cat. No. PHG0261). MMTV-PyMT organoids were cultured in DMEM/F12 GlutaMAX (Gibco, Cat. No 10565018) supplemented with 10 mmol/L Hepes (Gibco, Cat. No 15630106), Penicillin/streptomycin (10,000 U/ml; Thermo Fisher Scientific, Cat. No. 15140-122), B27 (2% Thermo Fisher Scientific, Cat. No. 17504-044) and fibroblast growth factor (FGF, 12 ng/ml; Invitrogen, Cat. No. PHG0261). […]
Following co-culture, medium was removed, and cultures were washed in PBS to remove T cells. […] Plates were read with a 565 nm wavelength.

Compound: CC(=O)O[C@@]12CO[C@@H]1C[C@H](O)[C@@]1(C)C(=O)[C@H](O)C3=C(C)[C@@H](OC(=O)[C@H](O)[C@@H](NC(=O)OC(C)(C)C)c4ccccc4)C[C@@](O)([C@@H](OC(=O)c4ccccc4)[C@H]21)C3(C)C [docetaxel]
- anti-tumor capacity against tumor organoids (organoid viability, luciferase) [1]: increased their anti-tumor capacity
- T cell-mediated killing by T cells from NOD-SCID IL2rg-/- mice (KB1P organoids [2]): triggered T cell-mediated killing
- killing of healthy organoids [3]: not against healthy organoids
- IC50 (KB1P organoids [4]): 0.0905 µM
